System: MV-4-11 cells
Assay: Gene expression microarray analysis (Affymetrix PrimeView) and GSEA
Format: cell-based, human
Parameters: RFU PODN (11730768_x_at) / Fold change /veh PODN (11730768_x_at) / RFU LINC00158 (11744669_a_at) / Fold change /veh LINC00158 (11744669_a_at) / RFU DUSP10 (11751237_a_at) / Fold change /veh DUSP10 (11751237_a_at) / RFU ID3 (11757404_x_at) / Fold change /veh ID3 (11757404_x_at) / RFU PLEKHG5 (11737974_s_at) / Fold change /veh PLEKHG5 (11737974_s_at) / RFU LRRC4B (11730491_at) / Fold change /veh LRRC4B (11730491_at) / RFU GIMAP4 (11747438_a_at) / Fold change /veh GIMAP4 (11747438_a_at) / RFU KRT8 (11758183_x_at) / Fold change /veh KRT8 (11758183_x_at) / RFU CNN1 (11734310_a_at) / Fold change /veh CNN1 (11734310_a_at) / RFU VPS37D (11726825_at) / Fold change /veh VPS37D (11726825_at) / RFU C10orf10 (11716522_x_at) / Fold change /veh C10orf10 (11716522_x_at) / RFU KIR2DL2 /// KIR2DL4 /// KIR2DL5A /// KIR2DL5B /// KIR2DS1 /// KIR2DS2 /// KIR2DS3 /// KIR2DS4 /// KIR3DL3 /// KIR3DL3 /// KIR3DS1 (11738374_at) / Fold change /veh KIR2DL2 /// KIR2DL4 /// KIR2DL5A /// KIR2DL5B /// KIR2DS1 /// KIR2DS2 /// KIR2DS3 /// KIR2DS4 /// KIR3DL3 /// KIR3DL3 /// KIR3DS1 (11738374_at) / RFU C1QL1 (11718748_at) / Fold change /veh C1QL1 (11718748_at) / RFU TMPRSS4 (11747572_a_at) / Fold change /veh TMPRSS4 (11747572_a_at) / RFU HAMP (11756126_x_at) / Fold change /veh HAMP (11756126_x_at) / RFU RNFT2 (11725882_a_at) / Fold change /veh RNFT2 (11725882_a_at) / RFU NR4A2 (11747474_a_at) / Fold change /veh NR4A2 (11747474_a_at) / RFU ABCC12 (11746883_a_at) / Fold change /veh ABCC12 (11746883_a_at) / RFU TMEM136 (11760407_x_at) / Fold change /veh TMEM136 (11760407_x_at) / RFU CLDN22 /// WWC2 (11732394_at) / Fold change /veh CLDN22 /// WWC2 (11732394_at) / RFU HLA-DPB1 (11760878_x_at) / Fold change /veh HLA-DPB1 (11760878_x_at) / RFU SPINT1 (11716480_a_at) / Fold change /veh SPINT1 (11716480_a_at) / RFU GAP43 (11754022_s_at) / Fold change /veh GAP43 (11754022_s_at) / RFU A4GNT (11735810_at) / Fold change /veh A4GNT (11735810_at) / RFU PRB3 (11715151_x_at) / Fold change /veh PRB3 (11715151_x_at) / RFU TUBB4B (11761932_at) / Fold change /veh TUBB4B (11761932_at) / RFU CAPN14 (11732068_a_at) / Fold change /veh CAPN14 (11732068_a_at) / RFU TMCC2 (11721928_a_at) / Fold change /veh TMCC2 (11721928_a_at) / RFU IRGQ (11745062_a_at) / Fold change /veh IRGQ (11745062_a_at) / RFU FAM174B (11720279_a_at) / Fold change /veh FAM174B (11720279_a_at) / RFU TMPRSS4 (11748680_a_at) / Fold change /veh TMPRSS4 (11748680_a_at) / RFU FAM212B (11763350_a_at) / Fold change /veh FAM212B (11763350_a_at) / RFU PLEKHG5 (11743358_a_at) / Fold change /veh PLEKHG5 (11743358_a_at) / RFU ZSCAN30 (11745921_a_at) / Fold change /veh ZSCAN30 (11745921_a_at) / RFU CMKLR1 (11741424_a_at) / Fold change /veh CMKLR1 (11741424_a_at) / RFU LOC101060620 /// MAPK8IP1 (11723275_at) / Fold change /veh LOC101060620 /// MAPK8IP1 (11723275_at) / RFU SPTSSB (11747773_x_at) / Fold change /veh SPTSSB (11747773_x_at) / RFU PRSS12 (11739890_at) / Fold change /veh PRSS12 (11739890_at) / RFU BIN1 (11741810_x_at) / Fold change /veh BIN1 (11741810_x_at) / RFU WNT11 (11732464_a_at) / Fold change /veh WNT11 (11732464_a_at) / RFU C10orf10 (11716521_a_at) / Fold change /veh C10orf10 (11716521_a_at) / RFU C5orf56 (11738089_at) / Fold change /veh C5orf56 (11738089_at) / RFU CYB561 (11721691_x_at) / Fold change /veh CYB561 (11721691_x_at) / RFU ANKRD19P (11752326_a_at) / Fold change /veh ANKRD19P (11752326_a_at) / RFU OR2T12 /// OR2T33 /// OR2T8 (11738714_s_at) / Fold change /veh OR2T12 /// OR2T33 /// OR2T8 (11738714_s_at) / RFU VCAN (11748164_a_at) / Fold change /veh VCAN (11748164_a_at) / RFU JSRP1 (11732532_at) / Fold change /veh JSRP1 (11732532_at) / RFU KRTAP10-11 (11738290_x_at) / Fold change /veh KRTAP10-11 (11738290_x_at) / RFU MYO3A (11730013_a_at) / Fold change /veh MYO3A (11730013_a_at) / RFU EBF3 (11725865_a_at) / Fold change /veh EBF3 (11725865_a_at) / RFU CAMK2N1 (11719241_x_at) / Fold change /veh CAMK2N1 (11719241_x_at) / RFU C5orf56 (11738088_a_at) / Fold change /veh C5orf56 (11738088_a_at) / RFU OLFML3 (11715873_a_at) / Fold change /veh OLFML3 (11715873_a_at) / RFU LOC100653217 /// NTM (11731650_a_at) / Fold change /veh LOC100653217 /// NTM (11731650_a_at) / RFU MAPK11 (11762145_a_at) / Fold change /veh MAPK11 (11762145_a_at) / RFU FIZ1 (11724087_x_at) / Fold change /veh FIZ1 (11724087_x_at) / RFU OASL (11726364_x_at) / Fold change /veh OASL (11726364_x_at) / RFU SOX15 (11748057_x_at) / Fold change /veh SOX15 (11748057_x_at) / RFU CD79A (11719716_a_at) / Fold change /veh CD79A (11719716_a_at) / RFU HIST1H1D (11736915_at) / Fold change /veh HIST1H1D (11736915_at) / RFU CASKIN2 (11723855_a_at) / Fold change /veh CASKIN2 (11723855_a_at) / RFU LOC730098 (11760151_x_at) / Fold change /veh LOC730098 (11760151_x_at) / RFU OR4N2 (11742367_at) / Fold change /veh OR4N2 (11742367_at) / RFU PRRT2 (11749266_a_at) / Fold change /veh PRRT2 (11749266_a_at) / RFU SNX32 (11753110_a_at) / Fold change /veh SNX32 (11753110_a_at) / RFU CDHR5 (11726645_a_at) / Fold change /veh CDHR5 (11726645_a_at) / RFU RCAN1 (11760418_a_at) / Fold change /veh RCAN1 (11760418_a_at) / RFU FAM167A (11723789_a_at) / Fold change /veh FAM167A (11723789_a_at) / RFU FAM26E (11764081_at) / Fold change /veh FAM26E (11764081_at) / RFU ISYNA1 (11749810_s_at) / Fold change /veh ISYNA1 (11749810_s_at) / RFU ACY1 (11761880_at) / Fold change /veh ACY1 (11761880_at) / RFU 11764098_at / Fold change /veh 11764098_at / RFU SAMD14 (11745864_x_at) / Fold change /veh SAMD14 (11745864_x_at) / RFU NPB (11741838_a_at) / Fold change /veh NPB (11741838_a_at) / RFU TMPRSS6 (11731388_a_at) / Fold change /veh TMPRSS6 (11731388_a_at) / RFU KRTAP10-2 (11738614_at) / Fold change /veh KRTAP10-2 (11738614_at) / RFU ARHGAP8 /// PRR5-ARHGAP8 (11727945_x_at) / Fold change /veh ARHGAP8 /// PRR5-ARHGAP8 (11727945_x_at) / RFU KRTAP5-7 /// NADSYN1 (11734609_at) / Fold change /veh KRTAP5-7 /// NADSYN1 (11734609_at) / RFU RASL12 (11751679_a_at) / Fold change /veh RASL12 (11751679_a_at) / RFU CDKN2B (11736163_a_at) / Fold change /veh CDKN2B (11736163_a_at) / RFU PRF1 (11729649_at) / Fold change /veh PRF1 (11729649_at) / RFU, ZNF638 /// ZNF638-IT1 / Fold change vs veh, ZNF638 /// ZNF638-IT1 / RFU, PANK3 / Fold change vs veh, PANK3 / RFU, SH3YL1 / Fold change vs veh, SH3YL1 / RFU, ZEB2 / Fold change vs veh, ZEB2 / RFU, NRIP1 / Fold change vs veh, NRIP1 / RFU, PTTG1IP / Fold change vs veh, PTTG1IP / RFU, CAPN2 / Fold change vs veh, CAPN2 / RFU, MED14 / Fold change vs veh, MED14 / RFU, SNORA58 / Fold change vs veh, SNORA58 / RFU, C1orf63 / Fold change vs veh, C1orf63 / RFU, LRRFIP1 / Fold change vs veh, LRRFIP1 / RFU, NDUFAF7 / Fold change vs veh, NDUFAF7 / RFU, SLC12A2 / Fold change vs veh, SLC12A2 / RFU, IBTK / Fold change vs veh, IBTK / RFU, ESF1 / Fold change vs veh, ESF1 / Fold change vs veh, TMEM50B / RFU, TAOK1 / Fold change vs veh, TAOK1 / RFU, ACBD3 / Fold change vs veh, ACBD3 / RFU, TMA16 / Fold change vs veh, TMA16 / RFU, RWDD3 / Fold change vs veh, RWDD3 / RFU, BCAT1 / Fold change vs veh, BCAT1 / RFU, EDEM3 / Fold change vs veh, EDEM3 / RFU, TMEM33 / Fold change vs veh, TMEM33 / RFU, WDR75 / Fold change vs veh, WDR75 / RFU, AHCTF1 / Fold change vs veh, AHCTF1 / RFU, TFRC / Fold change vs veh, TFRC / RFU, ZDHHC17 / Fold change vs veh, ZDHHC17 / RFU, NOM1 / Fold change vs veh, NOM1 / RFU, ARL8B / Fold change vs veh, ARL8B / RFU, ZBTB11 / Fold change vs veh, ZBTB11 / RFU, TAMM41 / Fold change vs veh, TAMM41 / RFU, KIAA1704 /// LOC100996395 / Fold change vs veh, KIAA1704 /// LOC100996395 / RFU, ING1 / Fold change vs veh, ING1 / RFU, TRMT61B / Fold change vs veh, TRMT61B / RFU, FUBP3 / Fold change vs veh, FUBP3 / RFU, TP53 / Fold change vs veh, TP53 / RFU, TNKS2 / Fold change vs veh, TNKS2 / RFU, ZFP14 / Fold change vs veh, ZFP14 / RFU, ACTR2 / Fold change vs veh, ACTR2 / RFU, PPP3R1 / Fold change vs veh, PPP3R1 / RFU, PIK3R1 / Fold change vs veh, PIK3R1 / RFU, HNRNPA1 / Fold change vs veh, HNRNPA1 / RFU, RNF170 / Fold change vs veh, RNF170 / RFU, ZNF28 / Fold change vs veh, ZNF28 / RFU, RNGTT / Fold change vs veh, RNGTT / RFU, OGT / Fold change vs veh, OGT / RFU, BRD1 / Fold change vs veh, BRD1 / RFU, MARS / Fold change vs veh, MARS / RFU, ZNF655 / Fold change vs veh, ZNF655 / RFU, FAHD1 / Fold change vs veh, FAHD1 / RFU, BDP1 / Fold change vs veh, BDP1 / RFU, LRRCC1 / Fold change vs veh, LRRCC1 / RFU, ARID1A / Fold change vs veh, ARID1A / RFU, ZNF146 / Fold change vs veh, ZNF146 / RFU, ZNF330 / Fold change vs veh, ZNF330 / RFU, GPN3 / Fold change vs veh, GPN3 / RFU, C9orf123 / Fold change vs veh, C9orf123 / RFU, N4BP2L2 / Fold change vs veh, N4BP2L2 / RFU, ARFIP1 / Fold change vs veh, ARFIP1 / RFU, FAM179B / Fold change vs veh, FAM179B / RFU, BCL10 / Fold change vs veh, BCL10 / RFU, UHRF1BP1L / Fold change vs veh, UHRF1BP1L / RFU, BET1 / Fold change vs veh, BET1 / RFU, CNOT2 / Fold change vs veh, CNOT2 / RFU, ZNF268 / Fold change vs veh, ZNF268 / Fold change vs veh, ZNF507 / RFU, DGCR2 / Fold change vs veh, DGCR2 / RFU, WDSUB1 / Fold change vs veh, WDSUB1 / Fold change vs veh, HSP90B1 /// MIR3652 / RFU, ADSS / Fold change vs veh, ADSS / RFU, GK / Fold change vs veh, GK / RFU, ZNF148 / Fold change vs veh, ZNF148 / RFU, TAF9 / Fold change vs veh, TAF9 / RFU, SLC1A5 / Fold change vs veh, SLC1A5 / RFU, SLMO2 / Fold change vs veh, SLMO2 / RFU, ABCC4 / Fold change vs veh, ABCC4 / RFU, LOC101060439 /// RAP1B / Fold change vs veh, LOC101060439 /// RAP1B / RFU, RFX7 / Fold change vs veh, RFX7 / RFU, GTPBP10 / Fold change vs veh, GTPBP10 / RFU, CNEP1R1 / Fold change vs veh, CNEP1R1 / RFU, BIVM-ERCC5 /// ERCC5 / Fold change vs veh, BIVM-ERCC5 /// ERCC5 / RFU, ILF3 / Fold change vs veh, ILF3 / RFU 11762660_at / Fold change /veh 11762660_at / RFU VCAN (11757783_s_at) / Fold change /veh VCAN (11757783_s_at) / RFU DDX43 (11728927_at) / Fold change /veh DDX43 (11728927_at) / RFU KRT8 (11758188_x_at) / Fold change /veh KRT8 (11758188_x_at) / RFU NKD1 (11759106_at) / Fold change /veh NKD1 (11759106_at) / RFU SRD5A1 (11742802_a_at) / Fold change /veh SRD5A1 (11742802_a_at) / RFU TPSAB1 /// TPSB2 (11721975_s_at) / Fold change /veh TPSAB1 /// TPSB2 (11721975_s_at) / RFU GSTM3 (11746129_a_at) / Fold change /veh GSTM3 (11746129_a_at) / RFU IL23R (11737362_x_at) / Fold change /veh IL23R (11737362_x_at) / RFU TMEM51 (11727254_a_at) / Fold change /veh TMEM51 (11727254_a_at) / RFU PIWIL2 (11732686_x_at) / Fold change /veh PIWIL2 (11732686_x_at) / RFU ORM1 (11744905_x_at) / Fold change /veh ORM1 (11744905_x_at) / RFU CCDC152 (11743942_at) / Fold change /veh CCDC152 (11743942_at) / RFU ECM1 (11717891_a_at) / Fold change /veh ECM1 (11717891_a_at) / RFU IL23R (11748794_a_at) / Fold change /veh IL23R (11748794_a_at) / RFU TNFAIP8L3 (11732012_x_at) / Fold change /veh TNFAIP8L3 (11732012_x_at) / RFU MBOAT4 (11741988_at) / Fold change /veh MBOAT4 (11741988_at) / RFU 11764193_at / Fold change /veh 11764193_at / RFU TMEM53 (11763286_at) / Fold change /veh TMEM53 (11763286_at) / RFU MAGEB2 (11727129_at) / Fold change /veh MAGEB2 (11727129_at) / RFU TMEM200A (11744735_a_at) / Fold change /veh TMEM200A (11744735_a_at) / RFU CCDC152 (11751479_a_at) / Fold change /veh CCDC152 (11751479_a_at) / RFU FAM211A (11726209_a_at) / Fold change /veh FAM211A (11726209_a_at) / RFU RGS16 (11746705_a_at) / Fold change /veh RGS16 (11746705_a_at) / RFU VCAN (11755009_s_at) / Fold change /veh VCAN (11755009_s_at) / RFU RHOB (11743442_s_at) / Fold change /veh RHOB (11743442_s_at) / RFU RGS16 (11720943_a_at) / Fold change /veh RGS16 (11720943_a_at) / RFU RGS16 (11720944_at) / Fold change /veh RGS16 (11720944_at) / RFU, VPS4B / Fold change vs veh, VPS4B / RFU, CREB1 / Fold change vs veh, CREB1 / RFU, DNAJC13 / Fold change vs veh, DNAJC13 / RFU, GNAQ / Fold change vs veh, GNAQ / RFU, CDK5R1 / Fold change vs veh, CDK5R1 / RFU, ZRANB3 / Fold change vs veh, ZRANB3 / RFU, CUL4A / Fold change vs veh, CUL4A / RFU, CCNY / Fold change vs veh, CCNY / RFU, UFL1 / Fold change vs veh, UFL1 / RFU, COG3 / Fold change vs veh, COG3 / RFU, DIAPH2 / Fold change vs veh, DIAPH2 / RFU, SKA2 / Fold change vs veh, SKA2 / RFU, AFF3 / Fold change vs veh, AFF3 / RFU, LMF1 / Fold change vs veh, LMF1 / RFU, IPO11 / Fold change vs veh, IPO11 / RFU, DFFB / Fold change vs veh, DFFB / RFU, FOXP1 / Fold change vs veh, FOXP1 / RFU, CARD8 / Fold change vs veh, CARD8 / RFU, STRN3 / Fold change vs veh, STRN3 / RFU, ADK / Fold change vs veh, ADK / RFU, RASSF2 / Fold change vs veh, RASSF2 / RFU, WIPF1 / Fold change vs veh, WIPF1 / RFU, LARP1B / Fold change vs veh, LARP1B / RFU, RASA1 / Fold change vs veh, RASA1 / RFU, RB1 / Fold change vs veh, RB1 / RFU, PPFIA1 / Fold change vs veh, PPFIA1 / RFU, MAT2A / Fold change vs veh, MAT2A / RFU, CCT5 / Fold change vs veh, CCT5 / RFU, WDR92 / Fold change vs veh, WDR92 / RFU, CUX1 / Fold change vs veh, CUX1 / RFU, TTC7A / Fold change vs veh, TTC7A / RFU, TMEM135 / Fold change vs veh, TMEM135 / RFU, DEPTOR / Fold change vs veh, DEPTOR / RFU, CPM / Fold change vs veh, CPM / RFU, DNAJB6 / Fold change vs veh, DNAJB6 / RFU, CACNA2D3 / Fold change vs veh, CACNA2D3 / RFU, DTX4 / Fold change vs veh, DTX4 / RFU, TFCP2 / Fold change vs veh, TFCP2 / RFU, GMCL1 /// GMCL1P1 / Fold change vs veh, GMCL1 /// GMCL1P1 / RFU, AEBP2 / Fold change vs veh, AEBP2 / RFU, SNHG1 /// SNORD22 /// SNORD25 /// SNORD26 /// SNORD27 /// SNORD28 /// SNORD29 /// SNORD31 / Fold change vs veh, SNHG1 /// SNORD22 /// SNORD25 /// SNORD26 /// SNORD27 /// SNORD28 /// SNORD29 /// SNORD31 / Fold change (Aza/veh), C12orf56 (ProbeSet 11735607_a_at) / Fold change (ACY-1035/veh), C12orf56 (ProbeSet 11735607_a_at) / Fold change (Aza/veh), FGFR1OP (ProbeSet 11751329_s_at) / Fold change (ACY-1035/veh), FGFR1OP (ProbeSet 11751329_s_at) / Fold change (Aza/veh), VPS36 (ProbeSet 11739960_a_at) / Fold change (ACY-1035/veh), VPS36 (ProbeSet 11739960_a_at) / RFU SYPL1 (11715823_x_at) / Fold change /veh SYPL1 (11715823_x_at) / RFU IGFBP7 (11715501_s_at) / Fold change /veh IGFBP7 (11715501_s_at) / RFU REEP3 (11722064_at) / Fold change /veh REEP3 (11722064_at) / RFU IGLL1 (11728026_x_at) / Fold change /veh IGLL1 (11728026_x_at): dose or concentration left out as unconfirmed
Settings: MV-4-11 cells, 48 hours

With `Nc1ccc(-c2cccs2)cc1NC(=O)c1ccc2c(c1)cc(C1CC1)n2CCN1CCOCC1` [ACY-1035] the “RFU C1QL1 (11718748_at)” value was 611.11 RFU.

— paper PMC5218480 (PLoS ONE, 2017)
